According to patent US10370333B2 (Sanford Burnham Prebys Medical Discovery Institute, priority 2012, dated 2019):

Target: TNAP (Homo sapiens (Human), UniProt P05186)
Assay: TNAP (PPi) inhibition assay, pyrophosphate as substrate
Format: biochemical
In short: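 Enzyme source was conditioned serum-free medium from COS-1 cells transiently expressing tagged human TNAP, dialyzed against TBS with MgCl2/ZnCl2. Activity on natural substrate PPi at pH 7.4 read as liberated phosphate (Biomol Green).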

IC50 | Compound
100 to 1000 nM | COc1ccc(OC)c(S(=O)(=O)Nc2cncc(C(=O)NCCN(C)C)c2)c1 [Example IV-42, 5-(2,5-Dimethoxyphenylsulfonamido)-N-(2-(dimethylamino)ethyl)nicotinamide]
> 1000 nM | CCCNC(=O)c1cncc(NS(=O)(=O)c2cc(OC(F)(F)F)ccc2OC)c1 [Example XII-21, 5-(2-Methoxy-5-(trifluoromethoxy)phenylsulfonamido)-N-propylnicotinamide]
< 100 nM | COC(=O)c1ccc(-c2cncc(NS(=O)(=O)c3cc(Cl)ccc3OC)c2)cc1 [Example III-30, 4-[5-(5-Chloro-2-methoxy-benzenesulfonylamino)-pyridin-3-yl]-benzoic Acid Methyl Ester]
100 to 1000 nM | COc1ccc(Br)cc1S(=O)(=O)Nc1cc(C)no1 [Example V-5, 5-Bromo-2-methoxy-N-(3-methyl-isoxazol-5-yl)-benzenesulfonamide]
100 to 1000 nM | O=S(=O)(Nc1cnc2ccccc2c1)c1cc(F)ccc1OC(F)(F)F [Example X-2, 5-Fluoro-N-quinolin-3-yl-2-trifluoromethoxy-benzenesulfonamide]
< 100 nM | COc1ccc(Br)cc1S(=O)(=O)Nc1cncc(-c2ccncc2)c1 [Example III-65, N-([3,4′-Bipyridin]-5-yl)-5-bromo-2-methoxybenzenesulfonamide]
< 100 nM | COc1cccc(-c2cncc(NS(=O)(=O)c3cc(Cl)ccc3OC)c2)c1 [Example III-48, 5-Chloro-2-methoxy-N-[5-(3-methoxy-phenyl)-pyridin-3-yl]-benzenesulfonamide]
100 to 1000 nM | COc1ccc(OC)c(S(=O)(=O)Nc2cncc(-c3ccccc3C(F)(F)F)c2)c1 [Example III-43, 2,5-Dimethoxy-N-[5-(2-trifluoromethyl-phenyl)-pyridin-3-yl]-benzenesulfonamide]
> 1000 nM | COc1ccc(Br)cc1S(=O)(=O)Nc1ccc(N(C)C)nc1 [Example VIII-7, 5-Bromo-N-(6-(dimethylamino)pyridin-3-yl)-2-methoxybenzenesulfonamide]
> 1000 nM | COc1ccc(Br)cc1S(=O)(=O)Nc1ccnnc1 [Example V-26, 5-Bromo-2-methoxy-N-pyridazin-4-yl-benzenesulfonamide]
> 1000 nM | COc1ccc(Br)cc1S(=O)(=O)Nc1ncccn1 [Example V-28, 5-Bromo-2-methoxy-N-pyrimidin-2-yl-benzenesulfonamide]
> 1000 nM | COc1ccc(OC)c(S(=O)(=O)Nc2nccs2)c1 [Example V-16, 2,5-Dimethoxy-N-thiazol-2-yl-benzenesulfonamide]
> 1000 nM | COc1ccc(Br)cc1S(=O)(=O)N(CCN(C)C)c1cnc2ccccc2c1 [Example VII-9, 5-Bromo-N-(2-(dimethylamino)ethyl)-2-methoxy-N-(quinolin-3-yl)benzenesulfonamide]
> 1000 nM | COCCCN(c1cnc2ccccc2c1)S(=O)(=O)c1cc(OC)ccc1OC [Example VII-18, 2,5-Dimethoxy-N-(3-methoxypropyl)-N-(quinolin-3-yl)benzenesulfonamide]
< 100 nM | COc1ccc2ncc(NS(=O)(=O)c3cc(Br)ccc3OC)cc2c1 [Example IX-2, 5-Bromo-2-methoxy-N-(6-methoxyquinolin-3-yl)benzenesulfonamide]
< 100 nM | COc1ccc(OC)c(S(=O)(=O)Nc2cncc(-c3ccccc3)c2)c1 [Example III-25, N-(5-Phenyl-pyridin-3-yl)-2,5-Dimethoxy-benzenesulfonamide]
< 100 nM | COc1ccc(OC(F)(F)F)cc1S(=O)(=O)Nc1cncc(C(=O)Oc2ccccc2)c1 [Example XII-18, Phenyl 5-(2-methoxy-5-(trifluoromethoxy)phenylsulfonamido)nicotinate]

IC50 | Compound
100 to 1000 nM | COc1ccc(OC)c(S(=O)(=O)Nc2cncc(-c3cccc(C)c3)c2)c1 [Example III-49, 2,5-Dimethoxy-N-(5-m-tolyl-pyridin-3-yl)-benzenesulfonamide]
< 100 nM | COc1ccc(Br)cc1S(=O)(=O)Nc1cncc(C(=O)NC2CCCCC2)c1 [Example IV-20, 5-(5-Bromo-2-methoxyphenylsulfonamido)-N-cyclohexylnicotinamide]
< 100 nM | COc1ccc(Cl)cc1S(=O)(=O)Nc1cncc(-c2cccs2)c1 [Example III-75, 5-Chloro-2-methoxy-N-(5-(thiophen-2-yl)pyridin-3-yl)benzenesulfonamide]
> 1000 nM | COCCN(c1cnc2ccccc2c1)S(=O)(=O)c1cc(OC)ccc1OC [Example VII-17, 2,5-Dimethoxy-N-(2-methoxyethyl)-N-(quinolin-3-yl)benzenesulfonamide]
< 100 nM | COC(=O)c1ccc(OC)c(S(=O)(=O)Nc2cnc3ccccc3c2)c1 [Example II-13, Methyl 4-methoxy-3-(N-(quinolin-3-yl)sulfamoyl)benzoate]
< 100 nM | COc1ccc(Cl)cc1S(=O)(=O)Nc1cncc(-c2ccc(F)cc2)c1 [Example III-18, 5-Chloro-N-[5-(4-fluoro-phenyl)-pyridin-3-yl]-2-methoxy-benzenesulfonamide]
100 to 1000 nM | COc1ccc(OC)c(S(=O)(=O)Nc2cncc(-c3ccc(OCc4ccccc4)cc3)c2)c1 [Example III-4, N-(5-(4-(Benzyloxy)phenyl)pyridin-3-yl)-2,5-dimethoxybenzenesulfonamide]
< 100 nM | O=C(O)c1cncc(NS(=O)(=O)c2cc(Br)ccc2OC(F)(F)F)c1 [Example XII-10, 5-(5-Bromo-2-(trifluoromethoxy)phenylsulfonamido)nicotinic acid]
> 1000 nM | COc1ccc(Br)cc1S(=O)(=O)N(c1cnc2ccccc2c1)C(C)C [Example VII-4, 5-Bromo-N-isopropyl-2-methoxy-N-(quinolin-3-yl)benzenesulfonamide]
< 100 nM | COc1ccc(Cl)cc1S(=O)(=O)Nc1cncc(-c2nccs2)c1 [Example III-81, 5-Chloro-2-methoxy-N-(5-(thiazol-2-yl)pyridin-3-yl)benzenesulfonamide]
> 1000 nM | COc1ccc(Br)cc1S(=O)(=O)Nc1nnc(C)s1 [Example V-17, 5-Bromo-2-methoxy-N-(5-methyl-[1,3,4]thiadiazol-2-yl)-benzenesulfonamide]
< 100 nM | O=S(=O)(Nc1cncc(-c2cscn2)c1)c1cc(Cl)ccc1OC(F)(F)F [Example XI-28, 5-Chloro-N-(5-(thiazol-4-yl)pyridin-3-yl)-2-(trifluoromethoxy)benzenesulfonamide]
< 100 nM | COc1cccc(-c2cncc(NS(=O)(=O)c3cc(OC)ccc3OC)c2)c1 [Example III-46, 2,5-Dimethoxy-N-[5-(3-methoxy-phenyl)-pyridin-3-yl]-benzenesulfonamide]
> 1000 nM | COc1ccc(OC)c(S(=O)(=O)Nc2ncco2)c1 [Example V-4, 2,5-Dimethoxy-N-oxazol-2-yl-benzenesulfonamide]
< 100 nM | COc1ccc(-c2cncc(NS(=O)(=O)c3cc(Cl)ccc3OC(F)(F)F)c2)cc1 [Example XI-1, 5-chloro-N-[5-(4-methoxy-phenyl)-pyridin-3-yl]-2-trifluoromethoxy-benzenesulfonamide]
> 1000 nM | COc1ccc(OC)c(S(=O)(=O)N(Cc2ccccc2)c2cnc3ccccc3c2)c1 [Example VII-16, 2,5-Dimethoxy-N-benzyl-N-(quinolin-3-yl)benzenesulfonamide]
< 100 nM | COc1ccc(Br)cc1S(=O)(=O)Nc1cncc(-c2ccccn2)c1 [Example III-59, N-([2,3′-Bipyridin]-5′-yl)-5-bromo-2-methoxybenzenesulfonamide]

Compound | IC50
CCCNC(=O)c1cncc(NS(=O)(=O)c2cc(Cl)ccc2OC(F)(F)F)c1 [Example XII-7, 5-(5-Chloro-2-(trifluoromethoxy)phenylsulfonamido)-N-propylnicotinamide] | > 1000 nM
COc1ccc(OC)c(S(=O)(=O)Nc2cncc(-c3ccccc3C)c2)c1 [Example III-37, 2,5-Dimethoxy-N-(5-(o-tolyl)pyridin-3-yl)benzenesulfonamide] | 100 to 1000 nM
O=S(=O)(Nc1cncc(-c2ncccn2)c1)c1cc(Cl)ccc1OC(F)(F)F [Example XI-23, 5-chloro-N-(5-(pyrimidin-2-yl)pyridin-3-yl)-2-(trifluoromethoxy)benzenesulfonamide] | > 1000 nM
COc1ccc(OC)c(S(=O)(=O)Nc2cncc(-c3ccc(C)cc3)c2)c1 [Example III-10, 2,5-Dimethoxy-N-(5-p-tolyl-pyridin-3-yl)-benzenesulfonamide] | 100 to 1000 nM
COc1ccc(OC)c(S(=O)(=O)Nc2nnc(C(F)(F)F)s2)c1 [Example V-20] | > 1000 nM
COc1ccc(OC)c(S(=O)(=O)Nc2cnccn2)c1 [Example V-23, 2,5-Dimethoxy-N-pyrazin-2-yl-benzenesulfonamide] | > 1000 nM
O=S(=O)(Nc1cncc(-c2ccc(OC(F)(F)F)cc2)c1)c1cc(Br)ccc1OC(F)(F)F [Example XI-4, 5-Bromo-2-(trifluoromethoxy)-N-(5-(4-(trifluoromethoxy)phenyl)pyridin-3-yl)benzenesulfonamide] | 100 to 1000 nM
COc1ccc(Br)cc1S(=O)(=O)Nc1cncc(-c2ccc(Br)cc2)c1 [Example III-23, 5-Bromo-N-[5-(4-bromo-phenyl)-pyridin-3-yl]-2-methoxy-benzenesulfonamide] | 100 to 1000 nM
COc1ccc(Cl)cc1S(=O)(=O)Nc1cncc(C(N)=O)c1 [Example IV-26, 5-(5-Chloro-2-methoxyphenylsulfonamido)nicotinamide] | < 100 nM
COc1ccc(S(=O)(=O)Nc2cnc3ccccc3c2)c(OC)c1 [Example II-4, 2,4-Dimethoxy-N-quinolin-3-yl-benzenesulfonamide] | > 1000 nM
O=S(=O)(Nc1cncc(-c2cnccn2)c1)c1cc(Cl)ccc1OC(F)(F)F [Example XI-20, 5-Chloro-N-(5-(pyrazin-2-yl)pyridin-3-yl)-2-(trifluoromethoxy)benzenesulfonamide] | 100 to 1000 nM
O=S(=O)(Nc1cncc(-c2cccs2)c1)c1cc(Br)ccc1OC(F)(F)F [Example XI-15, 5-Bromo-N-(5-(thiophen-2-yl)pyridin-3-yl)-2-(trifluoromethoxy)benzenesulfonamide] | 100 to 1000 nM
